We go through 4 molecules from patent publication US6846492B2, “Use of phenylethylamine derivatives for the antimicrobial treatment of surfaces” (Ciba Specialty Chemicals Corporation, priority 2000, dated 2005).

Each structure is given as a SMILES string.

One assay deals with Candida albicans ATCC 10231 (= CA). Briefly: MIC determination in microtiter plates, Candida albicans. The format is cell-based. The conditions noted are these: Tables 2a/2b, 48 hours at 37° C., ≦20% growth, optical density 620 nm, some approximate values. Here is the method: (§1) Determination of the Minimum Inhibitory Concentration (MIC Value) in Microtiter Plates
(§2) Casein/soybean flour peptone bouillon for the preparation of pre-cultures of the test bacteria and yeast.
(§3) Mycological slant agar for the pre-culture of moulds
(§4) The test substances are pre-dissolved in dimethyl sulfoxide (DMSO) and tested in a dilution series of 1:2.
(§5) Bacteria and yeast are cultured overnight in CASO bouillon, the mould is cultured overnight on mycological slant agar, and washed off with 10 ml of 0.85% sodium chloride solution (+0.1% TritonX-100).
(§6) All the test organisms are adjusted to an organism count of 1−5×10^6 CFU/ml using 0.85% sodium chloride solution.
(§7) The test substances are pre-pipetted into microtiter plates in an amount of 8 μl per well.
(§8) Pre-diluted organism suspensions are diluted 1:100 in CASO bouillon (bacteria and yeast) or Sabouraud 2% glucose bouillon (mould) and are added in an amount of 192 μl per well to the test substances.
(§9) The test batches are incubated for 48 hours at 37° C. (bacteria and yeast) or for 5 days at 28° C. (mould).
(§10) After incubation, the growth is evaluated by reference to the turbidity of the test batches (optical density) at 620 nm in a microplate reader.
(§11) One microtiter plate is used for each test organism and substance concentration. All the substances are tested in duplicate.
For `NCCc1ccc(OCc2cccc(C(F)(F)F)c2)c(OCc2cccc(C(F)(F)F)c2)c1` [Compound 9], the “MIC [ppm] CA” value is 7.5 ppm.
`CCOC(=O)COc1ccc(CCN)cc1OCC(=O)OCC` [Compound 22]: the “MIC [ppm] CA” value is reported as more than 120 ppm.
As for `CC(C)(C)OC(=O)COc1ccc(CCN)cc1OCC(=O)OC(C)(C)C` [Compound 25], the “MIC [ppm] CA” value is recorded as more than 120 ppm.
`NCCc1ccc(OCC(=O)OCc2ccccc2)c(OCC(=O)OCc2ccccc2)c1` [Compound 26]: the “MIC [ppm] CA” value was more than 120 ppm.

Another assay relates to Staphylococcus hominis DMS 20328 (= SH). Briefly: MIC determination in microtiter plates, Staphylococcus hominis. As to conditions: Tables 2a/2b, 48 hours at 37° C., ≦20% growth, optical density 620 nm, tested at 120, 60, 30, 15, 7.5 and 3.5 ppm, some approximate. The format is cell-based. The protocol:
as §1, §2, §3, §4, §5, §6, §7, §8, §9, §10, §11
For `NCCc1ccc(OCc2cccc(C(F)(F)F)c2)c(OCc2cccc(C(F)(F)F)c2)c1` [Compound 9], the “MIC [ppm] SH” value is on record as 3.75 ppm.
Take `CCOC(=O)COc1ccc(CCN)cc1OCC(=O)OCC` [Compound 22]: the “MIC [ppm] SH” value is given as more than 120 ppm.
As for `CC(C)(C)OC(=O)COc1ccc(CCN)cc1OCC(=O)OC(C)(C)C` [Compound 25], the “MIC [ppm] SH” value was more than 120 ppm.
For the molecule `NCCc1ccc(OCC(=O)OCc2ccccc2)c(OCC(=O)OCc2ccccc2)c1` [Compound 26], the “MIC [ppm] SH” value is given as more than 120 ppm.

The next assay relates to Aspergillus niger ATCC 6275 (= AN). As to the kind of experiment: MIC determination in microtiter plates, Aspergillus niger. The format is cell-based. As to conditions: Tables 2a/2b, 5 days at 28° C., ≦20% growth, optical density 620 nm, some approximate values. The protocol: as §1, §2, §3, §4, §5, §6, §7, §8, §9, §10, §11
Turning to `NCCc1ccc(OCc2cccc(C(F)(F)F)c2)c(OCc2cccc(C(F)(F)F)c2)c1` [Compound 9], the “MIC [ppm] AN” value is recorded as more than 120 ppm.
As to `CCOC(=O)COc1ccc(CCN)cc1OCC(=O)OCC` [Compound 22], the “MIC [ppm] AN” value is reported as more than 120 ppm.
In the case of `CC(C)(C)OC(=O)COc1ccc(CCN)cc1OCC(=O)OC(C)(C)C` [Compound 25], the “MIC [ppm] AN” value amounted to 15 ppm.
The same measure, in the same setting: next, `NCCc1ccc(OCC(=O)OCc2ccccc2)c(OCC(=O)OCc2ccccc2)c1` [Compound 26]: more than 120 ppm.

The subject of a further assay is Escherichia coli NCTC 8196 (= EC). Briefly: MIC determination in microtiter plates, Escherichia coli. It is filed as cell-based. As to conditions: Tables 2a/2b, 48 hours at 37° C., ≦20% growth, optical density 620 nm, some approximate values. Here is the method: as §1, §2, §3, §4, §5, §6, §7, §8, §9, §10, §11
With `NCCc1ccc(OCc2cccc(C(F)(F)F)c2)c(OCc2cccc(C(F)(F)F)c2)c1` [Compound 9], the “MIC [ppm] EC” value is on record as 3.75 ppm.
For the molecule `CCOC(=O)COc1ccc(CCN)cc1OCC(=O)OCC` [Compound 22], the “MIC [ppm] EC” value is more than 120 ppm.
For `CC(C)(C)OC(=O)COc1ccc(CCN)cc1OCC(=O)OC(C)(C)C` [Compound 25], the “MIC [ppm] EC” value is given as more than 120 ppm.
Consider `NCCc1ccc(OCC(=O)OCc2ccccc2)c(OCC(=O)OCc2ccccc2)c1` [Compound 26], for which the “MIC [ppm] EC” value was more than 120 ppm.

The test system of the next assay is Pseudomonas aeruginosa CIP A-22 (= PA). Briefly: MIC determination in microtiter plates, Pseudomonas aeruginosa. The conditions noted are these: Tables 2a/2b, 48 hours at 37° C., ≦20% growth, optical density 620 nm, some approximate values. It is filed as cell-based. Here is the method:
as §1, §2, §3, §4, §5, §6, §7, §8, §9, §10, §11
Take `NCCc1ccc(OCc2cccc(C(F)(F)F)c2)c(OCc2cccc(C(F)(F)F)c2)c1` [Compound 9]: the “MIC [ppm] PA” value is recorded as more than 120 ppm.
With `CCOC(=O)COc1ccc(CCN)cc1OCC(=O)OCC` [Compound 22], the “MIC [ppm] PA” value is more than 120 ppm.
For the molecule `CC(C)(C)OC(=O)COc1ccc(CCN)cc1OCC(=O)OC(C)(C)C` [Compound 25], the “MIC [ppm] PA” value was more than 120 ppm.
As to `NCCc1ccc(OCC(=O)OCc2ccccc2)c(OCC(=O)OCc2ccccc2)c1` [Compound 26], the “MIC [ppm] PA” value was more than 120 ppm.
